Molecules are shown by their SMILES.

In the first experiment the target is T1, Adenosine receptor A1 (Rattus norvegicus, UniProt P25099).
T1 sequence (P25099 whole entry): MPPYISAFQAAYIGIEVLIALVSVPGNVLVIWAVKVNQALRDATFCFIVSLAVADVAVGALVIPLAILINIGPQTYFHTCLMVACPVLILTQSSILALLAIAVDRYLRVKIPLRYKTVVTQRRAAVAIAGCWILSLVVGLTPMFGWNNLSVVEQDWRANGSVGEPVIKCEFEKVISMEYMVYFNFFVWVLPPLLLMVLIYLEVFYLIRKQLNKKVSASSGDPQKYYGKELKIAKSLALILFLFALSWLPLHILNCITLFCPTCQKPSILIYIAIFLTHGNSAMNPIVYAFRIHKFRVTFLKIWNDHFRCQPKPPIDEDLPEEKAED
Nature of the experiment: Affinity against Adenosine A1 receptor in rat brain using [3H]- PIA as radioligand. The format is tissue-based.
Details: not given
Consider `C=CCn1c(=O)c2c(nc(/C=C/c3cc(OC)c(OC)c(OC)c3)n2C)n(CC=C)c1=O`, for which the Ki (in general, the equilibrium dissociation constant of an inhibitor or competing ligand from its target) was determined as 1930 nM.

`Cn1c(=O)c2c(nc(/C=C/c3cccc(NC(=O)OC(C)(C)C)c3)n2C)n(C)c1=O` had a Ki of 23600 nM.

Compound `COc1cc(/C=C/c2nc3c(=O)n(C)c(=O)n(C)c3[nH]2)cc(OC)c1OC` showed a Ki of 2280 nM.

With `COc1cc(/C=C/c2nc3c(c(=O)n(C)c(=O)n3C)n2C)cc(OC)c1OC`, the Ki is 9200 nM.

Regarding `COc1cccc2cc(-c3nc4c(=O)n(C)c(=O)n(C)c4[nH]3)oc12`, the Ki was found to be 1770 nM.

Another experiment addresses T2, Adenosine receptor A1 (Rattus norvegicus) (UniProt P25099).
T2 sequence (whole entry): T1 sequence (P25099 whole entry)
Kind of experiment: Binding affinity against Adenosine A1 receptor in rat brain using [3H]- PIA. Format: tissue-based. To be noted: concentration not given here.
Consider `COc1ccc(/C=C/c2nc3c(=O)n(C)c(=O)n(C)c3[nH]2)c(OC)c1OC`, for which the inhibition (as a rule, the change of the read-out against control, counted positive when it falls) came out at 26%.

Consider `COc1cc(/C=C/c2nc3c(c(=O)n(C)c(=O)n3C)n2C)cc(OC)c1OC/C=C/CNC(C)=O`, for which the inhibition was 17%.

In the case of `COc1cc(/C=C/c2nc3c(c(=O)n(C)c(=O)n3C)n2C)cc(OC)c1`, the inhibition was determined as 12.5%.

Turning to `CN(C)c1ccc(/C=C/c2nc3c(c(=O)n(C)c(=O)n3C)n2C)cc1`, the inhibition turned out to be 5.6%.

Consider `Cn1c(=O)c2c(nc(CCc3cccc(N)c3)n2C)n(C)c1=O`, for which the inhibition turned out to be 15%.

With `COc1cc(/C=C/c2nc3c(c(=O)n(C)c(=O)n3C)n2C)cc(OC)c1OC/C=C/CNC(=O)OC(C)(C)C`, the inhibition turned out to be 11%.

The compound `COc1cc(/C=C/c2nc3c(c(=O)n(C)c(=O)n3C)n2CCO)cc(OC)c1OC` had an inhibition of 26%.

A further experiment concerns the target Adenosine A2 receptor (Rattus norvegicus) (UniProt P29276+P30543). Kind of experiment: Binding affinity against Adenosine A2 receptor in rat brain using [3H]- CGS 21680. To be noted: concentration not given here. Format: tissue-based.
`COc1cc(/C=C/c2nc3c(c(=O)n(C)c(=O)n3C)n2CCO)cc(OC)c1OC` displayed an inhibition of 22%.

A further experiment concerns the target Adenosine A2 receptor (Rattus norvegicus, UniProt P29276+P30543). Nature of the experiment: Binding affinity against adenosine A2 receptor in rat brain using [3H]- CGS 21680 as radioligand. The format is tissue-based.
Details: not given
On to `Cn1c(=O)c2c(nc(/C=C/c3cccc(NC(=O)CCC(=O)O)c3)n2C)n(C)c1=O`, for which the Ki was 143 nM.

The compound `Cn1c(=O)c2c(nc(/C=C/c3cccc(F)c3)n2C)n(C)c1=O` displayed a Ki of 83 nM.

`Cn1c(=O)c2c(nc(/C=C/c3cccc(N(C(=O)OC(C)(C)C)C(=O)OC(C)(C)C)c3)n2C)n(C)c1=O` registered an inhibition constant Ki of 740 nM.

`COc1ccc(/C=C/c2nc3c(=O)n(C)c(=O)n(C)c3[nH]2)c(OC)c1OC`: the inhibition constant (Ki) came out at 1610 nM.

As to `CCCn1c(=O)c2nc(/C=C/c3cc(F)cc(F)c3)[nH]c2n(CCC)c1=O`, the inhibitory constant (Ki) was 346 nM.

`Cn1c(=O)c2c(nc(/C=C/c3cccc([N+](=O)[O-])c3)n2C)n(C)c1=O` returned an inhibition constant Ki of 195 nM.

In the case of `CCn1c(/C=C/c2cc(OC)c(OC)c(OC)c2)nc2c1c(=O)n(C)c(=O)n2C`, the Ki is 882 nM.

The compound `CC(=O)Nc1cccc(/C=C/c2nc3c(c(=O)n(C)c(=O)n3C)n2C)c1` gave an inhibitory constant (Ki) of 39 nM.

Consider `Cn1c(=O)c2nc(/C(F)=C/c3ccccc3)[nH]c2n(C)c1=O`, for which the inhibitory constant (Ki) is listed as 2110 nM.

`COc1cc(/C=C/c2nc3c(c(=O)n(C)c(=O)n3C)n2C)cc(OC)c1OCc1ccccc1` showed an inhibition constant Ki of 139 nM.

The compound `Cn1c(=O)c2nc(/C=C/c3cccc(F)c3)[nH]c2n(C)c1=O` returned a Ki of 516 nM. Against the preceding compound, the Ki is about 3.7-fold higher.

`COc1ccc(/C=C/c2nc3c(=O)n(C)c(=O)n(C)c3[nH]2)cc1` returned an inhibitory constant (Ki) of 472 nM. The Ki values of the last two compounds are within 1.5-fold of each other.

On to `CCn1c(=O)c2nc(/C=C/c3cc(OC)c(OC)c(OC)c3)[nH]c2n(CC)c1=O`, for which the inhibitory constant (Ki) turned out to be 269 nM.

`COc1cc(/C=C/c2nc3c(c(=O)n(C)c(=O)n3C)n2C)cc(OC)c1OCCCCN` yielded a Ki of 173 nM.

Turning to `Cn1c(=O)c2nc(/C=C/c3cc(F)cc(F)c3)[nH]c2n(C)c1=O`, the inhibitory constant (Ki) was 366 nM.

Turning to `CCCn1c(=O)c2nc(/C=C/c3ccc(OC)c(OC)c3OC)[nH]c2n(CCC)c1=O`, the inhibition constant (Ki) is recorded as 64 nM.

On to `Cn1c(=O)c2c(nc(/C=C/c3cccc(NC(=O)OC(C)(C)C)c3)n2C)n(C)c1=O`, for which the Ki is 784 nM.

Regarding `CCCn1c(=O)c2nc(/C=C/c3cccc(Cl)c3)[nH]c2n(CCC)c1=O`, the Ki is on record as 216 nM.

In turn, `Cn1c(=O)c2nc(/C=C/c3cccc(O)c3)[nH]c2n(C)c1=O` had an inhibition constant (Ki) of 303 nM.

`Cn1c(=O)c2nc(/C=C/c3cccc(N)c3)[nH]c2n(C)c1=O` gave a Ki of 202 nM.

Compound `COc1cc(/C=C/c2nc3c(c(=O)n(C)c(=O)n3C)n2C)cc(OC)c1OC/C=C/CNC(C)=O` registered an inhibition constant Ki of 216 nM.

On to `COc1cc(/C=C/c2nc3c(c(=O)n(C)c(=O)n3C)n2C)cc(OC)c1OC(C)=O`, for which the Ki came out at 68 nM.

Turning to `CCCn1c(=O)c2c(nc(/C=C/c3cc(F)cc(F)c3)n2C)n(CCC)c1=O`, the Ki is listed as 53 nM.

On to `CCCn1c(=O)c2c(nc(/C=C/c3ccc(OC)c(OC)c3OC)n2C)n(CCC)c1=O`, for which the Ki was determined as 68.5 nM.

Compound `CCCn1c(=O)c2c(nc(/C=C/c3cc(OC)cc(OC)c3)n2C)n(CCC)c1=O` returned an inhibition constant Ki of 24 nM.

In the case of `COc1cc(/C=C/c2nc3c(c(=O)n(C)c(=O)n3C)n2C)cc(OC)c1O`, the inhibitory constant (Ki) is 450 nM. Compared with the last compound, the Ki is about 19-fold higher.

The compound `COc1ccc(/C=C/c2nc3c(c(=O)n(C)c(=O)n3C)n2C)cc1OC` showed an inhibition constant (Ki) of 197 nM.

`Cn1c(=O)c2c(nc(/C=C/c3cc(F)cc(F)c3)n2C)n(C)c1=O` showed an inhibition constant Ki of 65 nM. This Ki is about 3-fold lower than that of the compound before.

On to `Cn1c(=O)c2c(nc(/C=C/c3cccc(N)c3)n2C)n(C)c1=O`, for which the Ki is listed as 57 nM.

The compound `CN(C)c1ccc(/C=C/c2nc3c(=O)n(C)c(=O)n(C)c3[nH]2)cc1` came in with a Ki of 12800 nM.

`COc1cccc(/C=C/c2nc3c(=O)n(C)c(=O)n(C)c3[nH]2)c1` had a Ki of 378 nM. This Ki is about 34-fold lower than that of the compound before.

Regarding `Cn1c(=O)c2c(nc(/C=C/c3cccc(C(F)(F)F)c3)n2C)n(C)c1=O`, the Ki was 134 nM.

On to `COc1cccc(/C=C/c2nc3c(c(=O)n(C)c(=O)n3C)n2C)c1OC`, for which the inhibition constant (Ki) was found to be 716 nM.

Compound `Cn1c(=O)c2nc(/C=C/c3ccccc3)[nH]c2n(C)c1=O` had a Ki of 291 nM.

`CCCn1c(=O)c2nc(/C=C/c3ccccc3)[nH]c2n(CCC)c1=O` showed an inhibitory constant (Ki) of 44 nM. This Ki lies about 6.6-fold lower than the previous one.

Compound `CCCn1c(=O)c2nc(/C=C/c3cccc(F)c3)[nH]c2n(CCC)c1=O` yielded a Ki of 153 nM.

Consider `CCCn1c(=O)c2c(nc(/C=C/c3cc(OC)c(OC)cc3OC)n2C)n(CCC)c1=O`, for which the inhibition constant Ki is 327 nM. This Ki lies about 2.1-fold higher than the previous one.

Compound `COc1ccc(/C=C/c2nc3c(c(=O)n(C)c(=O)n3C)n2C)cc1` came in with a Ki of 327 nM.

As for `COc1cccc(/C=C/c2nc3c(c(=O)n(C)c(=O)n3C)n2C)c1`, the Ki came to 84.8 nM. This Ki is about 3.9-fold lower than that of the compound before.

For the compound `COc1cc(/C=C/c2nc3c(c(=O)n(C)c(=O)n3C)n2C)cc(OC)c1`, the inhibitory constant (Ki) came to 75.3 nM.

On to `CCCn1c(=O)c2c(nc(/C=C/c3cccc([N+](=O)[O-])c3)n2C)n(CCC)c1=O`, for which the Ki came to 56.2 nM. The Ki values of the last two compounds are within 1.5-fold of each other.

`CN(C)c1ccc(/C=C/c2nc3c(c(=O)n(C)c(=O)n3C)n2C)cc1`: the Ki was 9270 nM.

Consider `COc1cc(/C=C/c2nc3c(c(=O)n(C)c(=O)n3C)n2C)cc(OC)c1OC/C=C/CN`, for which the Ki is on record as 228 nM.

The compound `Cn1c(=O)c2c(nc(CCc3cccc(N)c3)n2C)n(C)c1=O` gave an inhibition constant (Ki) of 18000 nM.

In the case of `COc1cccc2cc(-c3nc4c(c(=O)n(C)c(=O)n4C)n3C)oc12`, the Ki worked out at 4740 nM. Compared with the last compound, the Ki is about 3.8-fold lower.

In turn, `CCCn1c(=O)c2nc(/C=C/c3cc(OC)c(OC)cc3OC)[nH]c2n(CCC)c1=O` had a Ki of 323 nM.

Compound `CCCn1c(=O)c2c(nc(/C=C/c3cccc(N)c3)n2C)n(CCC)c1=O` had a Ki of 18.9 nM. Against the preceding compound, the Ki is about 17-fold lower.

For `Cn1c(=O)c2nc(/C=C/c3cccc([N+](=O)[O-])c3)[nH]c2n(C)c1=O`, the Ki was 438 nM. This Ki is about 23-fold higher than that of the compound before.

Take `CCCn1c(=O)c2nc(/C=C/c3cc(OC)cc(OC)c3)[nH]c2n(CCC)c1=O`: the inhibition constant (Ki) came out at 210 nM.

Turning to `COc1ccc(/C=C/c2nc3c(=O)n(C)c(=O)n(C)c3[nH]2)cc1OC`, the inhibitory constant (Ki) is given as 1100 nM.

On to `CCCn1c(=O)c2c(nc(/C=C/c3cccc(F)c3)n2C)n(CCC)c1=O`, for which the inhibition constant (Ki) amounted to 33 nM.

As to `COc1cc(/C=C/c2nc3c(c(=O)n(C)c(=O)n3C)n2C)cc(OC)c1OC/C=C/CNC(=O)OC(C)(C)C`, the inhibition constant (Ki) turned out to be 353 nM. Compared with the last compound, the Ki is about 11-fold higher.

With `C#CCn1c(/C=C/c2cc(OC)c(OC)c(OC)c2)nc2c1c(=O)n(C)c(=O)n2C`, the Ki was found to be 525 nM. This Ki and that of the compound before are within 1.5-fold of each other.

`COc1cccc2cc(-c3nc4c(=O)n(C)c(=O)n(C)c4[nH]3)oc12` registered a Ki of 3900 nM.

`COc1cc(/C=C/c2nc3c(c(=O)n(C)c(=O)n3C)n2CCc2ccccc2)cc(OC)c1OC` came in with a Ki of 14 nM.

`COc1ccc(/C=C/c2nc3c(c(=O)n(C)c(=O)n3C)n2C)c(OC)c1OC` yielded a Ki of 206 nM.

On to `Cn1c(=O)c2nc(/C=C/c3cccc(C(F)(F)F)c3)[nH]c2n(C)c1=O`, for which the inhibition constant Ki was found to be 343 nM. Compared with the last compound, the Ki is about 1.7-fold higher.

`COc1ccccc1/C=C/c1nc2c(c(=O)n(C)c(=O)n2C)n1C` displayed a Ki of 267 nM. This Ki and that of the compound before are within 1.5-fold of each other.

Regarding `COc1cc(/C=C/c2nc3c(=O)n(C)c(=O)n(C)c3[nH]2)cc(OC)c1`, the Ki is reported as 120 nM.

Regarding `COc1ccccc1/C=C/c1nc2c(=O)n(C)c(=O)n(C)c2[nH]1`, the inhibitory constant (Ki) is reported as 645 nM.

`COc1cc(/C=C/c2nc3c(c(=O)n(C)c(=O)n3C)n2C)cc(OC)c1OCCCCNC(=O)OC(C)(C)C` yielded a Ki of 265 nM. Against the preceding compound, the Ki is about 2.4-fold lower.

Compound `COc1cccc(/C=C/c2nc3c(=O)n(C)c(=O)n(C)c3[nH]2)c1OC` showed a Ki of 600 nM.

The values are drawn from ChEMBL document CHEMBL1126680, “Structure-activity relationships of 8-styrylxanthines as A2-selective adenosine antagonists” (J Med Chem, 1993).
